Results on 1 compound are retold here after patent publication US10604473B2, “Lipids that increase insulin sensitivity and methods of using the same” (Beth Israel Deaconess Medical Center, Inc., priority 2013, dated 2020).

Data set [1] relates to isolated rat islets. In words: Insulin release in isolated rat islets. It is filed as cell-based. The settings on record: 25 mM glucose in the media. On the procedure: Ins1 cells (FIG. 21) or primary rat islet cells (FIG. 22) were seeded in 24 well-plates [˜10^6 cells/well]. At confluence, cells were incubated with Low Serum [2.5%] and Low Glucose [2.5 mM] media for 12 hours. Next, cells were incubated with KRB buffer for 1 h and stimulated with glucose in the presence of 5-PAHSA (FIG. 21) or 9-PAHSA (FIG. 21) for 45 min in KRB. At the end of the stimulation, 100 μL of media was collected and 10 μL was used to quantitate the amount of insulin released by ELISA. Treatment Conditions for FIGS. 21 and 22 were: • 5-PAHSA or 9-PAHSA [Stock]=20.0 mM [10.76 mg/mL Methanol] • A] 1 uM=0.3 uL/6 mL [Amount of methanol/mL=0.05 uL] • B] 5 uM=1.5 uL/6 mL [Amount of methanol/mL=0.25 uL] • C] 10 uM=3.0 uL/6 mL [Amount of methanol/mL=0.50 uL] • D] 20 uM=6.0 uL/6 mL [Amount of methanol/mL=1.00 uL] […]
Isolated rat islets were cultured overnight in RPMI 1640 medium containing 2.5 mM glucose and 2.5% fetal bovine serum supplemented with 100 IU/ml penicillin and 100 IU/ml streptomycin, 1 mM sodium pyruvate, and 10 mM HEPES (pH 7.4). […] At the end of the stimulation supernatant was collected and insulin released into the medium was quantified by ELISA as per manufacturer's protocol. The islets were lysed and protein content was measured and the amount of insulin released into the media was quantitated as ng/mL/μg of protein.

For data set [2], the system named is Human islets. In words: Glucose-stimulated insulin secretion in primary human islets. It is filed as cell-based. On the procedure: Two human donors provided cells used in these studies. Donor1 was a person, 5′0″, 157 lbs, with a BMI of 30.5, HbA1C was 5.8, who died from a stroke, but it was witnessed and they had no downtime. Islets were 80% pure and 95% viable. After arrival, islets were incubated overnight in human islet media before stimulation with glucose in presence and absence of 5-PAHSA (lipid A-5). Note 1 IU of Human Insulin=6 nmol=34.8 μg Insulin.
Human islets were divided into ten groups [100 islets per condition]
A] Low glucose [2.5 mM]; B] High glucose [20.0 mM]; C] Low glucose [2.5 mM]+2.5 μL/mL Methanol; D] High glucose [20.0 mM]+2.5 μL/mL Methanol; E] Low glucose+20 μM Lipid A-5; F] High glucose+20 μM Lipid A-5; G] Low glucose+50 μM Lipid A-5; H] High glucose+50 μM Lipid A-5.
Islets were cultured overnight in Human Islet media and next day incubated with KRB buffer for 4 h prior to glucose stimulation.
Following KRB incubation, islets were stimulated with glucose [2.5 mM & 20.0 mM] in the presence and absence of Lipid A-5 [20 & 50 μM] for 45 min
At the end of glucose stimulation the amount of insulin released [μ IU/mL] into the media was measured using Human Insulin ELISA kit. And the insulin content from the islets were extracted to express insulin released into the media as μ IU/mL/islet content.
Donor 2 was a person, 183 cm, 176 lbs, with a BMI of 23.9, HbA1C was 5.0, died from a stroke, but it was witnessed and they had no downtime. Islets were 85% pure and 95% viable. After arrival, islets were incubated overnight in human islet media before stimulation with glucose in presence and absence of 5-PAHSA (Lipid A-5).
Human islets were divided into […] [75 islets per condition]: A] Low glucose [2.5 mM]; B] High glucose [20.0 mM]; C] Low glucose [2.5 mM]+2.5 μL/mL Methanol; D] High glucose [20.0 mM]+2.5 μL/mL Methanol; E] Low glucose+20 μM Lipid A-5; F] High glucose+20 μM Lipid A-5.
Following KRB incubation, islets were stimulated with glucose [2.5 mM & 20.0 mM] in the presence and absence of Lipid A-5 [20 μM] for 45 min.

A short description of data set [3]: Serum 5-PAHSA after oral administration. It is filed as in vivo, mouse. The following applies: oral gavage. On the procedure: FIG. 56 is a bar graph showing serum 5-PAHSA levels after oral administration of synthesized 5-PAHSA. 3 h after food removal, mice were gavaged with 30 mg/kg body weight (chow-fed) or 45 mg/kg body weight (HFD-fed) of 5-PAHSA. 5 h post gavage, blood was collected via tail vein and serum 5-PAHSA was analyzed by mass spectrometry. n=3 mice per group. Data are expressed as mean±s.e.m. *p<0.05 vs. vehicle treated on the same diet; and δp<0.05 vs. chow vehicle.

In the case of `CCCCCCCCCCCCCCCC(=O)OC(CCCCCCCCCCCCC)CCCC(=O)O` (stereo not shown) [5-PAHSA], the glucose-stimulated insulin secretion result in data set [1] is “potentiates glucose-stimulated insulin secretion”. Also, the insulin secretion result in data set [2] (2.5 mM glucose, 5-PAHSA 20 μM) is reported as “had no effect on insulin secretion”. Further, the insulin secretion response entry in data set [2] (20 mM glucose, 5-PAHSA 20 μM) was “augmented the insulin secretion response”. The “Glucose Stimulated Insulin Secretion” value in data set [2] (Donor 1) and in data set [2] (Donor 2) was “induces Glucose Stimulated Insulin Secretion” throughout. Moreover, the “serum 5-PAHSA levels versus chow baseline” value in data set [3] (HFD-fed mice) is “more than restored the levels”. In data set [3] (mice on chow (30 mg/kg) and HFD (45 mg/kg), 5 h post gavage), the “increase in serum 5-PAHSA levels” value is given as 3-5 fold.
